The record followed here is PMC10254530, “Design and Synthesis of Brefeldin A-Isothiocyanate Derivatives with Selectivity and Their Potential for Cervical Cancer Therapy” (Molecules, 2023).

Where a name gives a salt, the structure may show the parent alone. Bounds are passed on as bounds.

In experiment [1] the test system is HepG2 cells. In words: CCK-8 antiproliferative assay, HepG2. The format is cell-based. The conditions noted are these: Homo sapiens, HepG2; CCK-8, 48 h, mean ± SD of three experiments; read-out: IC50 HepG2. How it is done:
(§1) All cells were cultured in Dulbecco’s Modified Eagle’s Medium (DMEM) (Burlington, MA, USA) or Roswell Park Memorial Institute (RPMI)-1640 medium containing 10% fetal bovine serum and 1% penicillin/streptomycin in an incubator at 37 °C and 5% CO2. […] Cell suspension with a concentration of 8 × 10^4 cells/mL was prepared after cell counting. 100 μL cell suspension was added to each well of the 96-well plate and then placed in an incubator overnight. Most of the derivatives were configured into 80 mM, 20 mM or 4 mM stock solution in DMSO, and the stock solution concentration of BFA and paclitaxel was 0.4 mM. […] The medium in each well was discarded, and 100 μL of gradient diluted derivative solution was added (the control group was added with serum-free medium).

The test system of experiment [2] is MDA-MB-231 cells. In words: CCK-8 antiproliferative assay, MDA-MB-231. The conditions noted are these: Homo sapiens, MDA-MB-231; CCK-8, 48 h, mean ± SD of three experiments; read-out: IC50 MDA-MB-231. The format is cell-based. How it is done: as §1
Experiment [3] has as its system A375 cells. In words: CCK-8 antiproliferative assay, A375. The conditions noted are these: Homo sapiens, A-375; CCK-8, 48 h, mean ± SD of three experiments; read-out: IC50 A375. The format is cell-based. How it is done: as §1
A general note: Tetrazolium dyes change colour on reduction, which living cells bring about.

In experiment [4] the test system is A549 cells. The experiment is described as follows: CCK-8 antiproliferative assay, A549. The format is cell-based. The conditions noted are these: Homo sapiens, A549; CCK-8, 48 h, mean ± SD of three experiments; read-out: IC50 A549. How it is done:
as §1

Experiment [5] deals with HeLa cells. In words: CCK-8 antiproliferative assay, HeLa. The format is cell-based, human. The conditions noted are these: for IC50: Homo sapiens, HeLa, CCK-8, 48 h, mean ± SD of three experiments, read-out: IC50 HeLa; for SIHeLa, selectivity index between L-02 and HeLa: SI = IC50(L-02)/IC50(HeLa). How it is done:
as §1

Experiment [6] concerns L-02 cells. In words: CCK-8 cytotoxicity assay, normal liver L-02. To be noted: Homo sapiens, L02; CCK-8, 48 h, normal liver cells, mean ± SD of three experiments; read-out: IC50 L-02. The format is cell-based. How it is done:
as §1

A word on the IC50: it is the concentration that gives 50% inhibition. `C[C@H]1CCC/C=C/[C@@H]2C[C@H](OC(=O)CCC(=O)OCCCCOC(=O)c3ccc(N=C=S)cc3)C[C@H]2[C@H](OC(=O)CCC(=O)OCCCCOC(=O)c2ccc(N=C=S)cc2)/C=C/C(=O)O1` [Compound 8b, Bis(4-((4-isothiocyanatobenzoyl)oxy)butyl) O,O’-((1R,2E,6S,10E,11aS,13S,14aR)-6-methyl-4-oxo-1,6,7,8,9,11a,12,13,14,14a-decahydro-4H-cyclopenta[f][1]oxacyclotridecine-1,13-diyl) disuccinate]: the concentration for half-maximal inhibition (IC50) in experiment [1] is > 40 µM; in experiment [2], > 40 µM; in experiment [3], > 40 µM; in experiment [4] it was > 40 µM; in experiment [5], 16.4 ± 1.35 µM; in experiment [6], > 80 µM. In experiment [5], the “SIHeLa, selectivity index between L-02 and HeLa” value is >4.88.
`C[C@H]1CCC/C=C/[C@@H]2C[C@H](OC(=O)c3ccc(N=C=S)cc3)C[C@H]2[C@H](OC(=O)c2ccc(N=C=S)cc2)/C=C/C(=O)O1` [Compound 5, (1R,2E,6S,10E,11aS,13S,14aR)-6-methyl-4-oxo-1,6,7,8,9,11a,12,13,14,14a-decahydro-4H-cyclopenta[f][1]oxacyclotridecine-1,13-diyl bis(4-isothiocyanatobenzoate)]: the IC50 in experiment [1] was > 40 µM; in experiment [2] it was > 40 µM; in experiment [3], > 40 µM; in experiment [4], 20.9 ± 1.42 µM; in experiment [5], > 40 µM; in experiment [6], > 80 µM.
`C[C@H]1CCC/C=C/[C@@H]2C[C@H](OC(=O)/C=C\C(=O)OCCOC(=O)c3ccc(N=C=S)cc3)C[C@H]2[C@H](OC(=O)/C=C\C(=O)OCCOC(=O)c2ccc(N=C=S)cc2)/C=C/C(=O)O1` [Compound 8g, Bis(2-((4-isothiocyanatobenzoyl)oxy)ethyl) O,O’-((1R,2E,6S,10E,11aS,13S,14aR)-6-methyl-4-oxo-1,6,7,8,9,11a,12,13,14,14a-decahydro-4H-cyclopenta[f][1]oxacyclotridecine-1,13-diyl) dimaleate]: the IC50 in experiment [1] is > 40 µM; in experiment [2], > 40 µM; in experiment [3], > 40 µM; in experiment [4], > 40 µM; in experiment [5], 9.74 ± 0.37 µM; in experiment [6], > 80 µM. In addition, in experiment [5], the “SIHeLa, selectivity index between L-02 and HeLa” value was >8.21.
Consider `C[C@H]1CCC/C=C/[C@@H]2C[C@H](O)C[C@H]2[C@H](OC(=O)CCC(=O)OCCOC(=O)c2ccc(N=C=S)cc2)/C=C/C(=O)O1` [Compound 9a, (1R,2E,6S,10E,11aS,13S,14aR)-13-Hydroxy-6-methyl-4-oxo-1,6,7,8,9,11a,12,13,14,14a-decahydro-4H-cyclopenta[f][1]oxacyclotridecin-1-yl (2-((4-isothiocyanatobenzoyl)oxy)ethyl) succinate], for which the half-inhibitory concentration (IC50) in experiment [1] turned out to be 5.93 ± 0.03 µM; in experiment [2], 8.04 ± 0.01 µM; in experiment [3], 2.07 ± 0.09 µM; in experiment [4], 8.29 ± 0.1 µM; in experiment [5] it was 2.69 ± 0.3 µM; in experiment [6], 15.5 ± 1.22 µM. In addition, in experiment [5], the “SIHeLa, selectivity index between L-02 and HeLa” value is listed as 5.75.
`CC(=O)O[C@H]1C(=O)[C@@]2(C)[C@H]([C@H](OC(=O)c3ccccc3)[C@]3(O)C[C@H](OC(=O)[C@H](O)[C@@H](NC(=O)c4ccccc4)c4ccccc4)C(C)=C1C3(C)C)[C@]1(OC(C)=O)CO[C@@H]1C[C@@H]2O` [paclitaxel, reference compound]: the 50% inhibitory concentration (IC50) in experiment [1] turned out to be 0.55 ± 0.03 µM; in experiment [2], 0.33 ± 0.03 µM; in experiment [3], 0.059 ± 0.001 µM; in experiment [4], 0.014 ± 0.002 µM; in experiment [5] it was 0.034 ± 0.002 µM; in experiment [6], 0.13 µM. The “SIHeLa, selectivity index between L-02 and HeLa” value in experiment [5] worked out at 3.82.
Take `C[C@H]1CCC/C=C/[C@@H]2C[C@H](OC(=O)/C=C\C(=O)OCCOCCOC(=O)c3ccc(N=C=S)cc3)C[C@H]2[C@H](OC(=O)/C=C\C(=O)OCCOCCOC(=O)c2ccc(N=C=S)cc2)/C=C/C(=O)O1` [Compound 8j, Bis(2-(2-((4-isothiocyanatobenzoyl)oxy)ethoxy)ethyl) O,O’-((1R,2E,6S,10E,11aS,13S,14aR)-6-methyl-4-oxo-1,6,7,8,9,11a,12,13,14,14a-decahydro-4H-cyclopenta[f][1]oxacyclotridecine-1,13-diyl) dimaleate]: the IC50 in experiment [1] was > 40 µM; in experiment [2], > 40 µM; in experiment [3] it was > 40 µM; in experiment [4], 23.79 ± 0.02 µM; in experiment [5], 30.6 ± 2.12 µM; in experiment [6], 21.27 ± 0.16 µM. Besides, the “SIHeLa, selectivity index between L-02 and HeLa” value in experiment [5] stood at 0.70.
On to `C[C@H]1CCC/C=C/[C@@H]2C[C@H](O)C[C@H]2[C@H](OC(=O)/C=C\C(=O)OCCOC(=O)c2ccc(N=C=S)cc2)/C=C/C(=O)O1` [Compound 9g, (1R,2E,6S,10E,11aS,13S,14aR)-13-Hydroxy-6-methyl-4-oxo-1,6,7,8,9,11a,12,13,14,14a-decahydro-4H-cyclopenta[f][1]oxacyclotridecin-1-yl (2-((4-isothiocyanatobenzoyl)oxy)ethyl) maleate], for which the concentration for half-maximal inhibition (IC50) in experiment [1] was 12.8 ± 0.15 µM; in experiment [2] it was 7.51 ± 0.07 µM; in experiment [3], 11.9 ± 0.54 µM; in experiment [4] it was 10.4 ± 0.59 µM; in experiment [5], 3.63 ± 0.23 µM; in experiment [6], 20.9 ± 0.49 µM. Also, the “SIHeLa, selectivity index between L-02 and HeLa” value in experiment [5] amounted to 5.75.
With `C[C@H]1CCC/C=C/[C@@H]2C[C@H](OC(=O)CCC(=O)OCCCCCCOC(=O)c3ccc(N=C=S)cc3)C[C@H]2[C@H](OC(=O)CCC(=O)OCCCCCCOC(=O)c2ccc(N=C=S)cc2)/C=C/C(=O)O1` [Compound 8e, Bis(6-((4-isothiocyanatobenzoyl)oxy)hexyl) O,O’-((1R,2E,6S,10E,11aS,13S,14aR)-6-methyl-4-oxo-1,6,7,8,9,11a,12,13,14,14a-decahydro-4H-cyclopenta[f][1]oxacyclotridecine-1,13-diyl) disuccinate], the IC50 in experiment [1] was > 40 µM; in experiment [2], > 40 µM; in experiment [3], > 40 µM; in experiment [4], > 40 µM; in experiment [5], 26.8 ± 0.7 µM; in experiment [6] it was > 80 µM. The “SIHeLa, selectivity index between L-02 and HeLa” value in experiment [5] was >2.99.
For the molecule `C[C@H]1CCC/C=C/[C@@H]2C[C@H](O)C[C@H]2[C@H](O)/C=C/C(=O)O1` [BFA, Brefeldin A], the IC50 in experiment [1] was 0.12 ± 0.01 µM; in experiment [2], 0.054 ± 0.001 µM; in experiment [3], 0.039 ± 0.001 µM; in experiment [4], 0.056 ± 0.002 µM; in experiment [5], 0.044 ± 0.004 µM; in experiment [6] it was 0.094 ± 0.004 µM. Besides, in experiment [5], the “SIHeLa, selectivity index between L-02 and HeLa” value is on record as 2.14.
As for `C[C@H]1CCC/C=C/[C@@H]2C[C@H](O)C[C@H]2[C@H](OC(=O)CCC(=O)OCC#CCOC(=O)c2ccc(N=C=S)cc2)/C=C/C(=O)O1` [Compound 9c, (1R,2E,6S,10E,11aS,13S,14aR)-13-Hydroxy-6-methyl-4-oxo-1,6,7,8,9,11a,12,13,14,14a-decahydro-4H-cyclopenta[f][1]oxacyclotridecin-1-yl (4-((4-isothiocyanatobenzoyl)oxy)but-2-yn-1-yl) succinate], the 50% inhibitory concentration (IC50) in experiment [1] is 8.84 ± 0.28 µM; in experiment [2], 9.77 ± 0.22 µM; in experiment [3], 10.4 ± 0.16 µM; in experiment [4], 13.19 ± 0.03 µM; in experiment [5] it was 3.63 ± 0.15 µM; in experiment [6] it was 17.4 ± 0.44 µM. Moreover, in experiment [5], the “SIHeLa, selectivity index between L-02 and HeLa” value worked out at 4.79.
